Where a SMILES comes first, the peptide text is derived from it. Where no end group is shown, it is not given here. [ ]: non-standard residue; d: D form.
Legend:
[1] = tested on: ZIKV (Brazil/2016/INMI1 strain); assay: Dose-dependent effect on ZIKV infection of Vero E6 cells; assay type: cell-based, Zika virus; settings: MOI of 1, Brazil/2016/INMI1 strain, fitted dose-response model
Protocol: FIG 4 Amphipathicity was involved in the differences in potency between claudin-derived peptides. […] Three amino acids of interest at positions 11, 15, and 18 are indicated. (B) Sequences of the parental and modified peptides. The swapped amino acids are highlighted. (C) ZIKV (MOI of 1) was treated with 50 μM of the modified peptides described in (B) for 1 h. […] Left or right orientations of the helixes are indicated with an arrow and the hydrophobic faces of each peptide are shown with a black line. […] The dark line represents the fitted dose-response model for each peptide and the light area represents the 95% confidence interval of the model. The calculated IC50 is indicated.
A D-enantiomer of an alpha helix forms a mirrored left-handed helix (Fig. 4D) but retains the same physicochemical properties ([28]).

ZIKV [2] = assay: ZIKV internalization assay in hCMEC/D3 cells; assay type: cell-based, Zika virus; settings: 2 h at 37°C
ZIKV [3] = assay: ZIKV binding assay on hCMEC/D3 cells; assay type: cell-based, Zika virus
HCV = tested on: HCV; set-up: method as in PMID 22378192; settings: Huh7.5.1 cells; cited from earlier work
SARS-CoV-2 = assay type: cell-based; settings: 50 μM, Vero E6 cells, MOI of 1, 72 h, flow cytometry
ZIKV [4] = assay: Treatment of concentrated ZIKV stock followed by 30-fold dilution and infection of hCMEC/D3; settings: ZIKV stock 1.5 × 10^7 PFU/mL treated with 10 μM for 1 h, diluted by a factor of 30, hCMEC/D3, 48 h
ZIKV E-mediated fusion = assay type: cell-based, Zika virus; settings: C6/36 infected with ZIKV MOI of 2 for 48 h, acidification 2 h, fusion index
Caco-2 epithelial cells = settings: 50 μM, differentiated Caco-2 monolayers on Transwell, over 24 h, n = 3
ZIKV [5] = assay: ZIKV viral production, supernatants of infected hCMEC/D3 cells titrated on Vero E6 cells; assay type: cell-based, Zika virus; settings: 50 μM peptide, MOI of 1, titrated on Vero E6
ZIKV [6] = assay: Pretreatment of hCMEC/D3 cells with peptide before ZIKV infection; settings: 10 μM for 1 h, cells washed, then ZIKV MOI of 1 for 48 h, hCMEC/D3, RT-qPCR
HIV-1 = settings: 50 μM, human primary CD4+ T cells, 72 h, flow cytometry
ZIKV [7] = assay: ZIKV replication and production in TrHBMEC, HUVEC, A549 and HEK 293T cells; assay type: cell-based, Zika virus; settings: 50 μM peptide, MOI of 1, HUVEC, RT-qPCR and titration
ZIKV [8] = settings: for IC50: read-out: IC50, ZIKV infection in hCMEC/D3, ZIKV MOI of 1, hCMEC/D3, fitted dose-response model, R^2 0.9 (CL1.1) and 0.7 (CL7.1)

Question: With CC[C@@H](C)[C@@H](NC(=O)[C@@H](Cc1ccccc1)NC(=O)CNC(=O)[C@@H](CC(C)C)NC(=O)[C@@H](CC(C)C)NC(=O)[C@@H](CCC(N)=O)NC(=O)[C@@H](CC(C)C)NC(=O)CNC(=O)[C@@H](C)NC(=O)[C@@H](CC(N)=O)NC(=O)[C@@H](C)NC(=O)[C@H](N)CCSC)C(=O)N[C@H](CC(C)C)C(=O)N[C@H](C)C(=O)N[C@H](Cc1ccccc1)C(=O)N[C@H](CC(C)C)C(=O)NCC(=O)N[C@H](Cc1c[nH]c2ccccc12)C(=O)O [D-CL1.1] (H-[dM][dA][dN][dA]G[dL][dQ][dL][dL]G[dF][dI][dL][dA][dF][dL]G[dW]-OH; N-terminus and C-terminus assumed) as the molecule, how does the “antiviral properties against YFV compared with CL1.1” value (YFV; Vero E6, MOI of 1, increasing concentrations (Fig. S6)) read?
Answer: Its value is “comparable to that of CL1.1”.

Question: And the IC50 [1]?
Answer: The IC50 was 670 ± 40 nM.

Question: What about the “antiviral properties against JEV compared with CL1.1” value (JEV) of the same molecule?
Answer: The value was “comparable to that of CL1.1”.

Question: With O=C(N/N=C/c1ccc(O)c(O)c1)c1cc2ccccc2cc1O [Dynasore, reference compound] as the molecule, how does the “reduction of viral internalization” value (ZIKV [2]; 100 μM, positive control, hCMEC/D3) read?
Answer: Its value is 95%.

Question: With Heparin [reference compound] as the molecule, how does the “reduction of viral binding” value (ZIKV [3]; 200 μg/mL, positive control, 1 h at 4°C, MOI of 10, hCMEC/D3) read?
Answer: The value was 80%.

Question: Which “antiviral activity against HCV infection” value (HCV) does the source give for MANAGLQLLGFILAFLGW [CL1.1] here?
Answer: Its value is “exhibited antiviral activity”.

Question: What about the “antiviral activity against SARS-CoV-2 infection” value (SARS-CoV-2) of the same molecule?
Answer: Its value is “No antiviral activity”.

Question: What about the “reduction of intracellular viral RNA levels” value (ZIKV [4]) of the same molecule?
Answer: The value was 80%.

Question: What about the “reduction of syncytium formation” value (ZIKV E-mediated fusion; 10 μM) of the same molecule?
Answer: The value was 80%.

Question: And the electric transepithelial resistance (Caco-2 epithelial cells)?
Answer: Its electric transepithelial resistance is “did not alter”.

Question: What about the IC50 (YFV; read-out: IC50, YFV, Vero E6, MOI of 1, YFV/17D strain, titration of supernatants) of the same molecule?
Answer: Its IC50 is 560 ± 50 nM.

Question: What about the IC50 [1] of the same molecule?
Answer: The IC50 was 710 ± 50 nM.

Question: What about the “binding of ZIKV to hCMEC/D3 cells” value (ZIKV [3]; 10 μM, inoculum treated 1 h, adsorption 1 h at 4°C, MOI of 10, RT-qPCR) of the same molecule?
Answer: The value was “did not alter”.

Question: What about the “viral production (infectious particles in supernatants)” value (ZIKV [5]) of the same molecule?
Answer: Its value is “below the detection limit of the assay”.

Question: And the “cell susceptibility to ZIKV after pretreatment of cells” value (ZIKV [6])?
Answer: The value was “did not affect cell susceptibility to ZIKV”.

Question: What about the “antiviral activity against HIV-1 infection” value (HIV-1) of the same molecule?
Answer: The value was “No antiviral activity”.

Question: What about the “ZIKV internalization in hCMEC/D3 cells” value (ZIKV [2]; 10 μM, trypsin removal of surface virus, RT-qPCR) of the same molecule?
Answer: The value was “did not alter”.

Question: And the “ZIKV replication and production” value (ZIKV [7])?
Answer: Its value is “undetectable”.

Question: What about the “intracellular viral RNA levels / impact on ZIKV infection” value (ZIKV [8]; 50 μM peptide, hCMEC/D3, MOI of 1, 48 h, RT-qPCR) of the same molecule?
Answer: The value was “below the threshold of detection”.

Question: What about the IC50 (ZIKV [8]) of the same molecule?
Answer: The IC50 was roughly 870 nM.

Question: What does the source list for MANSGLQLLGFSMALLGW [CL7.1]?
Answer: reduction of syncytium formation / fusion (ZIKV E-mediated fusion; 50 μM): 40%; viral production (infectious particles in supernatants) (ZIKV [5]): significantly reduced; ZIKV replication and production (ZIKV [7]): significantly reduced; reduction of viral RNA levels compared to untreated cells (ZIKV [8]; 50 μM peptide, inoculum treated 1 h, adsorption 2 h, MOI of 1, peptide kept 48 h, hCMEC/D3, RT-qPCR): 2 fold; antiviral activity in the absence of pretreatment (ZIKV [8]; 50 μM, virus and peptide added simultaneously to the cell culture, hCMEC/D3): also detected; IC50 (ZIKV [8]): 53000 ± 13000 nM

Reference: article PMC9603178, “Human Claudin-Derived Peptides Block the Membrane Fusion Process of Zika Virus and Are Broad Flavivirus Inhibitors” (Microbiology Spectrum, 2022)
